We go through 2 molecules from patent publication US9949465B2, “Atopic dermatitis model animal and use thereof” (HYOGO COLLEGE OF MEDICINE, priority 2013, dated 2018).

Experiment [1] has as its system hK14mIL33tg mice. The experiment is described as follows: Scratching behavior (skin scratching time) in hK14mIL33tg mice. The experiment is classed as in vivo, mouse. As for the experimental part: Skin scratching time (sec/min) in any 20 min of wild-type mice (WT) and hK14mIL33tg mice (Tg) was measured. […] Furthermore, an effect of anti-histamine drugs on the scratching behavior was verified. Diphenhydramine hydrochloride (2 mg) was intraperitoneally administered to hK14mIL33tg mice. As a result, the scratching time of mice observed in 20 min from 6 min after the administration decreased from average 4.6 min to average 0.2 min (FIG. 19).

Experiment [2] has as its system hK14mIL33tg mice. Put plainly: Rash score of hK14mIL33tg mice after application to rash site. The experiment is classed as in vivo, mouse. As for the experimental part: Each item can be measured by a known method, or according to the below-mentioned Examples. For example, as for the rash score, 5 items of pruritus, erythematous plaque/bleeding, edema, epidermis detachment/erosion, and desquamation/drying are evaluated and rated as absent (0 point), mild (1 point), moderate (2 points), and severe (3 points), and the total points are used for measurement (Matsuda H et al., Int. Immunol, 9(3):461-466, 1997). As for the number of inflammatory cells, for example, cells derived from skin tissue, peripheral blood or lymph node are analyzed by flow cytometry, and the ratio thereof can be measured. The inflammatory cells include eosinophils, neutrophils, basophils, mast cells, type 2 innate lymphoid cells and the like, preferably eosinophils, mast cells and type 2 innate lymphoid cells. The total IgE concentration, histamine concentration, cytokine concentration and chemokine concentration can be measured by ELISA using each antibody. As used herein, cytokine is preferably IL-5 or IL-13. […]
An effect of steroid drug on scratching behavior of hK14mIL33tg mice was verified. […] As rash scores, 5 items of pruritus, erythematous plaque/bleeding, edema, epidermis detach/erosion, and desquamation/drying were evaluated into absent (0 point), mild (1 point), moderate (2 points), and severe (3 points) (Matsuda H et al., Int. Immunol, 9(3):461-466, 1997). […]

Each structure is given as a SMILES string. Counter-ions that a name gives are not always drawn.

Take `CN(C)CCOC(c1ccccc1)c1ccccc1` [Diphenhydramine hydrochloride]: the “scratching time after administration” value in experiment [1] (2 mg intraperitoneally, observed in 20 min from 6 min after the administration, average, n=3, before administration average 4.6 min) was 0.2 min. Besides, the “scratching time (result in words)” value in experiment [1] (hK14mIL33tg (Tg) mice, increased scratching time vs wild-type) is reported as “could reduce”.
Take `CCCC(=O)O[C@]1(C(=O)COC(=O)CC)[C@@H](C)C[C@H]2[C@@H]3CCC4=CC(=O)C=C[C@]4(C)[C@@]3(F)[C@@H](O)C[C@@]21C` [betamethasone butyrate propionate]: in experiment [2] (applied to rash site 5 times every 2 days, average, n=4, before application average 12.3 points, 5 items scored 0-3), the “total points of rash score after application” value is listed as 4.8 points. Besides, the “rash score (result in words)” value in experiment [2] (hK14mIL33tg (Tg) mice) was “could reduce”.
